Patent US20170226139A1, “CRYSTALLINE SALTS OF (Z)-O-OCTADEC-9-EN-1-YL O,O-DIHYDROGEN PHOSPHOROTHIOATE” (priority 2013, published 2017)
“Also recorded” adds a separate entry of the source. Where two headings read alike, the source gives them in different places.

Tests used:
LPA5 = target: T1, LPA5 (Homo sapiens, UniProt Q9H1C0); test: Calcium-mobilization assay (FURA-2), LPA5 in B103 neuroblastoma cells; assay type: cell-based
T1 construct: expressed in transfected cells; host or cells: B103 rat neuroblastoma
T1 sequence (Q9H1C0 whole entry): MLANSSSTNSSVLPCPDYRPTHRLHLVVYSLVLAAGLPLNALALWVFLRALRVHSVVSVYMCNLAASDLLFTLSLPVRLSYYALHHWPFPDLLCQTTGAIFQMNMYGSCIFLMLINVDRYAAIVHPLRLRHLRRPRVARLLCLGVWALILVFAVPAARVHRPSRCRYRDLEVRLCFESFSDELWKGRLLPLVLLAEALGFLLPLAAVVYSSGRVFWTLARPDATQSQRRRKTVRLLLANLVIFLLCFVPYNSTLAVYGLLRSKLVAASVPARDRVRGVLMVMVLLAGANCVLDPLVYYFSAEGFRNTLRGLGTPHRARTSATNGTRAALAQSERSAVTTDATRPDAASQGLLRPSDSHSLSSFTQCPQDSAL
Procedure: (§1) We investigated structure-activity relationships across species, LPAR subtypes and between Rx100 and two known process impurities encountered in manufacture: Rx103 (‘E’ isomer) and Rx200 (oleyl phosphate and impurity, which can be an Rx100 degradant along with oleyl alcohol). Rx100, Rx103, Rx200 and native LPA were investigated at different human LPAR subtypes. In addition, the activity of these compounds was evaluated at LPA2 receptors from the rhesus, rat and mouse species. Human LPA1/2/3 subtypes were transfected into mouse embryonic fibroblasts (MEF) or rat hepatoma cells (RH7777)—both of which are normally non-responsive or null to LPA. Human LPA4 was transfected into Chinese hamster ovary (CHO) cells and LPA5 into the B103 neuroblastoma cell line. […] The B103 rat neuroblastoma cell line is endogenously nonresponsive to LPA but expresses heterologous LPA5 receptors well. […] LPAR activation elicits a G-protein-mediated transient rise in intracellular calcium level that is proportional to the concentration of LPA applied. The intracellular calcium level was quantified by the calcium-selective fluorescent indicator FURA-2 (e.g., increased intracellular calcium surge=increased fluorescence).

[1] = target: LPA2 receptors from the rat (Rattus norvegicus, UniProt A0ABK0LT65); test: Calcium-mobilization assay (FURA-2), rat LPA2; assay type: cell-based
Sequence of LPA2 receptors from the rat (A0ABK0LT65 1-348): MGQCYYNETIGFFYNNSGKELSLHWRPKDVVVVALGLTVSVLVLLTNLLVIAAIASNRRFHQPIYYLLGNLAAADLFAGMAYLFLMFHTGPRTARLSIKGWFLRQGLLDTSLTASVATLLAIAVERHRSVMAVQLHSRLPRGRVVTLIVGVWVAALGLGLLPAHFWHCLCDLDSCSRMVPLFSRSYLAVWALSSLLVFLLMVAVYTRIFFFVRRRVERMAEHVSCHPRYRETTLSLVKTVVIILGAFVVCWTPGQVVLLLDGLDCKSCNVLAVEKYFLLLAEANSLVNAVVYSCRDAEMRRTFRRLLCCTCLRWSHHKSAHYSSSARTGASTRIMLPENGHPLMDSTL
Procedure: as §1

Control CHO = test: Calcium-mobilization assay, untransfected Control CHO cells; assay type: cell-based, Chinese hamster; conditions: Cricetulus griseus, CHO
Procedure: as §1

Sprague-Dawley rats = test: Single-dose (and 7-day) subcutaneous toxicity in rats; assay type: in vivo
Procedure: In the second phase of the study, animals (n=3/sex/group) received 25 mg/kg/day for seven consecutive days with injections being rotated between two sites. Parameters evaluated included clinical signs, body weight, and gross pathology.

[2] = system: Cultured human peripheral lymphocytes cells; assay type: cell-based; conditions: for Aberrant Cells Mean % −g: excluding gaps only; for Aberrant Cells Mean % +g: plus cells with gaps only
Procedure: Cultured human peripheral lymphocytes cells were incubated in vitro with Rx100.Lysine for 3 hours with and without S9 mix and for 24 hours without S9 mix. For Rx100.Lysine, concentrations ranging from 3.39 to 500 μg/mL were examined in both treatment conditions. Adjusting for purity, the concentration ranges were 3.06 to 452 μg/mL. […] This increase was just above the historical vehicle control range (0 to 2.0%) for 3 hour treatment without metabolic activation. Thus the response observed is a weak positive and of questionable biological significance cytotoxicity was present just below the acceptable limit of 50±5% for this assay.
Thus, Rx100.Lysine was considered negative for inducing chromosome aberrations, polyploidy and endoreduplication, in cultured human peripheral blood lymphocytes following a 3 hour treatment with and a 24 treatment without metabolic activation.

[3] = system: bone marrow cells (micronucleated PCEs); test: In vivo rat bone marrow micronucleus assay; parameters: species or system Sprague-Dawley rats
Procedure: A GLP-compliant rat micronucleus study was performed using male Sprague-Dawley rats (n=5/group) administered single subcutaneous doses of Rx100.lysine at 0 (0.5% sterile water for injection with 10 mM L-histidine), 125, 250, and […] (doses corrected for purity were 113, 225 and 452 mg/kg). One additional group received the positive control material (cyclophosphamide). Five animals per group were sacrificed 24 hours postdose; five animals from the vehicle and high dose group were sacrificed 48 hours postdose. Following sacrifice, bone marrow cells were collected from the femur. 2000 PCEs per animal were analyzed for the frequency of micronuclei. […] The materials were also shown to be homogenous (relative standard deviation [RSD] of 0.7 to 0.9%). […] Thus, Rx100.Lysine was considered to be negative in the micronucleus assay.

male Sprague Dawley rats = test: Central nervous system safety pharmacology, modified Irwin battery; assay type: in vivo; conditions: SC 1.81, 6.33 and 18.1 mg/kg; through 24 hours post-dose
Procedure: Four groups of male Sprague Dawley rats (n=8/group) were administered Rx100.lysine via subcutaneous injection at doses of 0 (10 mM histidine in sterile water for Injection, USP), 1.81, 6.33 and 18.1 mg/kg as the free acid. Animals were assessed pre-dose and through 24 hours post-dose for a variety of behavioral, neurological and autonomic responses using the modified Irwin battery of assessments. Dose formulation analyses were conducted and samples ranged from 99 to 104% of target. The only effect observed was a small (0.8 to 1.5 degrees C.) decrease in body temperature noted at 2-4 hours postdose.

physchem = conditions: thermodynamic from solid
[4] = 3-hour treatment with metabolic activation, 84.0 μg/mL
[5] = 3-hour treatment with metabolic activation, 120 μg/mL
[6] = 3-hour treatment with metabolic activation, 172 μg/mL
[7] = 3-hour treatment without metabolic activation, 120 μg/mL
[8] = 3-hour treatment without metabolic activation, 245 μg/mL
[9] = 3-hour treatment without metabolic activation, 350 μg/mL
[10] = 24-hour treatment without metabolic activation, 41.2 μg/mL
[11] = 24-hour treatment without metabolic activation, 84.0 μg/mL
[12] = 24-hour treatment without metabolic activation, 120 μg/mL
[13] = 125 mg/kg single subcutaneous dose, harvest 24 hour
[14] = 250 mg/kg single subcutaneous dose, harvest 24 hour

CCCCCCCC/C=C\CCCCCCCCOP(O)(O)=S [Rx100, (Z)—O-octadec-9-en-1-yl O,O-dihydrogen phosphorothioate]
EC50 (LPA5): 0.1 µM | Emax (LPA5; B103, read-out: Emax (% of LPA)): 104% | EC50 [1]: 0.076 µM | Emax ([1]; read-out: Emax (% of LPA)): 100% | EC50 (Control CHO): > 5 µM | Emax (Control CHO; read-out: Emax (% of LPA)): 20%

CCCCCCCC/C=C\CCCCCCCCOP(O)(O)=S [Rx100.L-Lysine, (Z)—O-octadec-9-en-1-yl O,O-dihydrogen phosphorothioate]
necropsy findings (Sprague-Dawley rats; Phase I, rats given >50 mg/kg): scabs were observed on the skin overlying the injection site | body weight (Sprague-Dawley rats; Phase I, single SC dose >50 mg/kg, first 3 days post-dose): transient loss of body weight | skin findings (Sprague-Dawley rats; Phase I, single SC doses of >10 mg/kg, beginning several days post-dose): produced scabs | body weight (Sprague-Dawley rats; Phase II, 25 mg/kg/day for seven consecutive days): transient body weight loss was followed by rebound | necropsy findings (Sprague-Dawley rats; Phase II, 25 mg/kg/day for seven days): small organ size was noted for the epididymis, prostate, seminal vesicle, and testis of all three males | dosing site findings (Sprague-Dawley rats; Phase II, 25 mg/kg/day for seven days, first two dosing sites): scabs developed with delayed onset | Cytotoxicity (% of Control) [2, 4]: 77 % of Control | Endoreduplicate Mean % [2, 4]: 0.0% | Polyploidy Mean % [2, 4]: 0.0% | Aberrant Cells Mean % −g [2, 4]: 0.0% | Aberrant Cells Mean % +g [2, 4]: 1.5% | Cytotoxicity (% of Control) [2, 5]: 65 % of Control | Endoreduplicate Mean % [2, 5]: 0.0% | Polyploidy Mean % [2, 5]: 0.0% | Aberrant Cells Mean % −g [2, 5]: 0.5% | Aberrant Cells Mean % +g [2, 5]: 2.5% | Cytotoxicity (% of Control) [2, 6]: 68 % of Control | Endoreduplicate Mean % [2, 6]: 0.0% | Polyploidy Mean % [2, 6]: 0.0% | Aberrant Cells Mean % −g [2, 6]: 0.5% | Aberrant Cells Mean % +g [2, 6]: 3.0% | Endoreduplicate Mean % [2, 7]: 0.0% | Polyploidy Mean % [2, 7]: 0.5% | Aberrant Cells Mean % −g [2, 7]: 0.5% | Aberrant Cells Mean % +g [2, 7]: 1.0% | Endoreduplicate Mean % [2, 8]: 0.0% | Polyploidy Mean % [2, 8]: 1.5% | Aberrant Cells Mean % −g [2, 8]: 3.0% | Aberrant Cells Mean % +g [2, 8]: 6.0% | Endoreduplicate Mean % [2, 9]: 0.0% | Polyploidy Mean % [2, 9]: 3.0% | Aberrant Cells Mean % −g [2, 9]: 6.0% | Aberrant Cells Mean % +g [2, 9]: 8.5% | Endoreduplicate Mean % [2, 10]: 0.0% | Polyploidy Mean % [2, 10]: 0.0% | Aberrant Cells Mean % −g [2, 10]: 0.5% | Aberrant Cells Mean % +g [2, 10]: 3.0% | Endoreduplicate Mean % [2, 11]: 0.0% | Polyploidy Mean % [2, 11]: 0.0% | Aberrant Cells Mean % −g [2, 11]: 2.0% | Aberrant Cells Mean % +g [2, 11]: 5.5% | Endoreduplicate Mean % [2, 12]: 0.0% | Polyploidy Mean % [2, 12]: 1.0% | Aberrant Cells Mean % −g [2, 12]: 0.5% | Aberrant Cells Mean % +g [2, 12]: 4.5% | Genotoxic Effects ([2]; 3 hour treatment with S9 and 24 hour treatment without S9): Genotoxic Effects: Negative for inducing chromosome aberrations, polyploidy and endoreduplication following a 3 hour treatment | chromosome aberrations, polyploidy and endoreduplication ([2]; 3 hours with or 24 hours without metabolic activation, listed as Rx100.Lysine): No increase in structural or numerical aberrations, polyploidy or endoreduplication; also recorded: negative | cells with chromosome aberrations ([2]; 3 hours without metabolic activation, increase only at 316 μg/mL, listed as Rx100.Lysine): small but statistically significant increase; also recorded: weakly positive | cytotoxicity ([2]; highest concentration tested, 3-hour exposure): Cytotoxicity was observed | Cytotoxic Effect ([2]; study summary, primary human lymphocytes): Cytotoxic Effect: None | Mean % MNPC (±SD) Male [3, 13]: 0.04% | Mean Ratio PCE:NCE (±SD) Male [3, 13]: 0.55 | Mean % MNPC (±SD) Male [3, 14]: 0.07% | Mean Ratio PCE:NCE (±SD) Male [3, 14]: 0.59 | Mean Ratio PCE:NCE (±SD) Male ([3]; 500 mg/kg single subcutaneous dose, harvest 48 hour): 0.36 | Toxic/Cytotoxic Effects ([3]; all doses of the test article, statistically significant decreases in the PCE:NCE ratios): Toxic/Cytotoxic Effects: Rx100.Lysine was cytotoxic to the bone marrow (i.e., statistically significant decreases in the PCE:NCE ratios) | micronucleated PCEs ([3]; any dose, 24 hour point, single SC dose): no increase in micronucleated PCEs | clinical signs ([3]; high dose animals at 48 hours postdose): hunched posture, hypoactivity and irregular respiration | micronucleated PCEs ([3]; high dose animals, 48-hour time point, not considered biologically relevant): statistically significant increase | micronucleus assay, overall result ([3]; rat, in vivo): negative | other parameters of the modified Irwin battery (male Sprague Dawley rats): No other effects | solubility (physchem; simulated formulation solvent, aqueous with cosolvent or surfactant or cyclodextrin): > 43 mg/mL | solubility (physchem; water): > 48 mg/mL
